Converted amounts (≈) assume the structure as drawn. Where two headings read alike, the source gives them in different places.
Key:
[1] = tested on: MRSA-1 (methicillin-resistant Staphylococcus aureus clinical isolate); experiment: MIC assay (broth microdilution, CLSI); assay type: cell-based; conditions: Staphylococcus aureus, MRSA, read-out: MIC, MRSA-1
[2] = tested on: Staphylococcus epidermidis (ATCC 35984), MRSE; experiment: MIC assay (broth microdilution, CLSI); assay type: cell-based; conditions: Staphylococcus epidermidis
[3] = tested on: M. tuberculosis H37Ra (ATCC 25177); experiment: Mycobacterium tuberculosis MIC assay; assay type: cell-based
Procedure, shortened: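 Culture diluted to OD600 0.01 and exposed to compounds in 0.5% final DMSO, each compound tested in three rows. Growth read as OD600 absorbance. Data from three independent experiments.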

[4] = in vitro; assay type: cell-based; conditions: human
[5] = tested on: HeLa cells; experiment: in vitro; assay type: cell-based
[6] = tested on: human red blood cells; experiment: Hemolysis assay with red blood cells; conditions: human, 1 h, 200 μM, pH 7.2
Procedure, shortened: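 Hemolysis expressed as percent of the Triton X signal with DMSO as zero, using OD405 of supernatant. Compounds from DMSO stocks were incubated with triple-washed human erythrocytes for 1 hour at 37° C. before centrifugation; three independent experiments.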

[7] = tested on: A. baumannii 19606; experiment: MIC assay (broth microdilution, CLSI); assay type: cell-based, Acinetobacter baumannii; conditions: Acinetobacter baumannii, 19606; read-out: A. baumannii 19606 MIC
[8] = Aqueous solubility under MIC assay conditions; assay type: physicochemical; conditions: MIC assay media, 37 °C, aqueous buffer; read-out: [aq. soluble]
[9] = Spectrophotometric determination of dissociation constants (pKa); assay type: physicochemical; conditions: UV-vis at varying pH, 1:1 water:methanol buffers
Method: Dissociation constants (pKa) for select analogues were determined by implementing UV-vis spectroscopy at varying pH values. Buffers were prepared using potassium phosphate monobasic (KH2PO4) and sodium phosphate dibasic (Na2HPO4) in a 1:1 solution of water:methanol to achieve a pH range of 3.78 to 10.94. Compounds were added from 10 mM stock solutions in dimethyl sulfoxide (12.5 μL) to 987.5 μL of each buffer to yield a final compound concentration of 125 μM. Full spectral scans were performed for each evaluated analogue at pH 3.78 and pH 10.94 from 300 to 800 nm to determine λmax values for the protonated phenol (HA; e.g., HP 2 below) and the deprotonated phenolate species (A^−; e.g., conjugate base of HP 2 below). The change in absorption at each determined λmax in relation to pH was then monitored in each buffer and then plotted as absorbance versus pH for each species. The pKa was first estimated by determining the pH of the point of intersection of the two linear curves as shown. The visual estimation was confirmed by plotting pH versus log [A^−/HA]. The resulting plot yielded a linear regression line with a Y-intercept corresponding to a calculated pKa value.

[10] = tested on: methicillin-resistant S. aureus (MRSA) strains; experiment: MIC assay, values summarised over MRSA strains; assay type: cell-based, Staphylococcus aureus
[11] = tested on: S. aureus clinical isolate SA 138; experiment: MIC assay (broth microdilution, CLSI); conditions: Staphylococcus aureus, read-out: MIC, SA 138
[12] = Table 2B, b lowest concentration tested
[13] = Table 2B, read-out: MIC, Staphylococcus epidermidis (ATCC 35984)
[14] = Table 7, read-out: MIC, MRSE 35984
[15] = Mycobacterium tuberculosis, Table 7, read-out: MIC, M. tuberculosis H37Ra

SMILES	MIC [1, 12]	MIC ([1]; Table 11)	MIC [2, 13]	MIC [2, 14]	MIC [3, 15]	IC50 at 24 h [4]	IC50 ([5]; human, 24 h)	% Hemolysis (200 μM) [6]	% Hemolysis at 200 μM [6]	MIC [7]	solubility at 16 h [8]	pKa [9]	MIC [11]	other results
Oc1ccc(I)c2nc3cc(Cl)c(Cl)cc3nc12 [Compound 12, 7,8-Dichloro-4-iodo-1-hydroxyphenazine]	0.2 µM (≈ 0.0782 µg/mL)	0.3 µM (≈ 0.117 µg/mL)	0.78 µM (≈ 0.305 µg/mL)	0.78 µM (≈ 0.305 µg/mL)	3.13 µM	> 100 µM	> 100 µM	1.4%	1.4%	> 100 µM	200 µM (≈ 78.2 µg/mL)	7.70	0.59 µM (≈ 0.231 µg/mL)	MIC ([2]; Table 2A, read-out: MIC, Staphylococcus epidermidis (ATCC 35984)): 0.78 µM (≈ 0.305 µg/mL); MIC ([3]; Mycobacterium tuberculosis, 168 h, read-out: Mtb MIC): 3.13 µM; MIC ([3]; Mycobacterium tuberculosis, read-out: MIC, M. tuberculosis): ~1 µg/mL; MIC ([10]; Staphylococcus aureus, MRSA, range over the MRSA strains/isolates tested, read-out: MIC against MRSA strains): 0.15 to 0.59 µM (≈ 0.0586 to 0.231 µg/mL)
Oc1c(Br)cc(I)c2nc3cc(Cl)c(Cl)cc3nc12 [Compound 14, 2-bromo-7,8-dichloro-4-iodo-1-hydroxyphenazine]	0.1 µM (≈ 0.047 µg/mL)	0.1 µM (≈ 0.047 µg/mL)	3.13 µM (≈ 1.47 µg/mL)	3.13 µM (≈ 1.47 µg/mL)	12.5 µM	> 50 µM	> 50 µM	2.7%	2.7%	> 100 µM	200 µM (≈ 94 µg/mL)	6.95	0.59 µM (≈ 0.277 µg/mL)	MIC ([3]; Mycobacterium tuberculosis, 168 h, M. tuberculosis H37Ra, 7 days, read-out: Mtb MIC): 12.5 µM; MIC ([3]; Table 7, read-out: MIC, M. tuberculosis H37Ra): 12.5 µM; HeLa cytotoxicity at 50 μM [5]: no cytotoxicity was observed; HeLa cytotoxicity at 50 μM ([5]; human, 24 h, 50 μM): No HeLa cell death; HeLa cell death at 100 μM ([5]; human, 24 h, 100 μM): ~70%; growth inhibition activity against at least one MRSA strain [10]: sub-micromolar
